Where a chain is given by its changes, count along the chain named. pEC50: −log10 of the molar value. Where two headings read alike, the source gives them in different places.
What was measured:
[1] = molecular target: T1, WT RhlR (Pseudomonas aeruginosa, UniProt P54292); assay: E. coli prhlA-luxCDABE luciferase reporter assay; format: cell-based
T1 construct: expressed in transfected cells; host or cells: E. coli carrying pBAD-A-rhlR, pCS26-prhlA-luxCDABE and pACYC-pqsE or empty pACYC
T1 sequence (P54292 1-241): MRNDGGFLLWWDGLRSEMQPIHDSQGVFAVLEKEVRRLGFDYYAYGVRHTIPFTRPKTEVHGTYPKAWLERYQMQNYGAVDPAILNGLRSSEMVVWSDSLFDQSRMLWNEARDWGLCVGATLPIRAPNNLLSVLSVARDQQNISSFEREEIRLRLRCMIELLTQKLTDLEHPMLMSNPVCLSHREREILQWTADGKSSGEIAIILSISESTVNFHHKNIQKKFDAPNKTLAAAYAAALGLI
Source text: (§1) Previous analysis of the RhlR LBP focused on highly conserved residues that were known from other AHL-binding proteins to be important contacts for AHL molecules, particularly the lactone head group. We performed conservation analyses on 300 LuxR-type receptors to determine variable and moderately conserved residues in the LBP (Fig. 1B) and, in conjunction with our previously determined experimental structure of WT RhlR bound to the synthetic agonist mBTL, used for docking C4- and C6HSL. Based on our docking simulations, C4- and C6HSL occupy a similar position in the LBP as mBTL, a highly efficacious activator of RhlR (Fig. 1C; Fig. S1). We targeted residues A44, G46, T58, L69, Y72, D81, I84, W96, and W108 (Fig. 1B and C). These residues were selected because of their proximity to the acyl tail of C4HSL, as well as the differences in conservation that are observed at these sites. We used an E. coli luciferase reporter assay to monitor ligand-dependent activation of WT RhlR and RhlR variants. WT RhlR and RhlR variants were expressed under the control of an arabinose-inducible promoter (Fig. S2). Transcription was monitored by light production via the expression of the luxCDABE operon controlled by the RhlR-dependent promoter of rhlA. Binding of RhlR to the rhlA promoter is highly dependent on the C4HSL-RhlR interaction, based on ChIP-seq analyses performed in P. aeruginosa as well as previously published E. coli reporter systems ([34], [39]). After expressing WT RhlR and RhlR variants in the E. coli reporter system, we performed dose response assays using C4HSL to calculate the concentration of C4HSL required to activate the reporter system to 50% maximum levels (EC50 value; Table 1). As expected, transcription activation by WT RhlR increased with increased C4HSL levels, with an EC50 value of ~2 µM. We observed a range of responses. Figure 1C depicts the targeted residues, which are colored based on the effect of amino acid substitution.
(§2) RhlR requires the accessory-binding protein, PqsE, for maximal activity. To determine if PqsE expression altered the activation of RhlR variants, we assessed AHL-dependent RhlR activation of the prhlA-luxCDABE reporter in the presence of a third plasmid that constitutively expresses PqsE in E. coli. […] RhlR variants that were still active but with increased EC50 values for C4HSL could have their activity enhanced by PqsE. […] Thus, alterations to the LBP can diminish the additive effect of PqsE-dependent transcription, indicating a potential role of allosteric conformational changes dependent on ligand occupancy. […] RhlR variants at residues I84 and W108 could not be activated by C4HSL, and thus, light levels remained low at all concentrations that were tested. Unlike the aforementioned variants, RhlR I84M/W and RhlR W108F/Y were activated by the expression of PqsE (Fig. S4).
(§3) All E. coli strains in this study were grown overnight with shaking in 5 mL Luria-Bertani (LB) media supplemented with 100 µg/mL ampicillin, 50 µg/mL kanamycin, and 15 µg/mL tetracycline at 37°C overnight. Overnight cultures were diluted 1:100 into fresh media, grown at 37°C with shaking for 2 h until reaching OD600 = 0.4. Cultures were induced with a final concentration of 0.1% arabinose, and 198 μL of the induced culture was mixed with 2 μL of C4HSL dilutions in a clear-bottom, black-opaque 96-well plate (Corning) and grown at 37°C with shaking for 4 h. The C4HSL dilution series was performed 1:1 in dimethyl sulfoxide (DMSO) with a top final concentration of 10 μM. Luminescence and optical density were recorded using a Glomax (Promega) plate reader.

[2] = molecular target: T2, RhlR (L69K) (Pseudomonas aeruginosa, UniProt P54292, L69K); assay: E. coli prhlA-luxCDABE luciferase reporter assay; format: cell-based; conditions: pqsE co-expressed
T2 construct: expressed in transfected cells; host or cells: E. coli carrying pBAD-A-rhlR mutant, pCS26-prhlA-luxCDABE and pACYC-pqsE or empty pACYC
Source text: as §1, §2, §3

[3] = molecular target: T3, RhlR (T58V) (Pseudomonas aeruginosa, UniProt P54292, T58V); assay: E. coli prhlA-luxCDABE luciferase reporter assay; format: cell-based
T3 construct: expressed in transfected cells; host or cells: E. coli carrying pBAD-A-rhlR mutant, pCS26-prhlA-luxCDABE and pACYC-pqsE or empty pACYC
T3 sequence (P54292 1-241 T58V): T1 sequence (P54292 1-241) with T58V
Source text: as §1, §2, §3

[4] = molecular target: T4, RhlR (G46W) (Pseudomonas aeruginosa, UniProt P54292, G46W); assay: E. coli prhlA-luxCDABE luciferase reporter assay; format: cell-based; conditions: even at the highest dose of C4HSL tested
T4 construct: expressed in transfected cells; host or cells: E. coli carrying pBAD-A-rhlR mutant, pCS26-prhlA-luxCDABE and pACYC-pqsE or empty pACYC
Source text: as §1, §2, §3

[5] = molecular target: T5, RhlR (G46M) (Pseudomonas aeruginosa, UniProt P54292, G46M); assay: E. coli prhlA-luxCDABE luciferase reporter assay; format: cell-based
T5 construct: expressed in transfected cells; host or cells: E. coli carrying pBAD-A-rhlR mutant, pCS26-prhlA-luxCDABE and pACYC-pqsE or empty pACYC
Source text: as §1, §2, §3

[6] = molecular target: T6, RhlR (I84W) (Pseudomonas aeruginosa, UniProt P54292, I84W); assay: E. coli prhlA-luxCDABE luciferase reporter assay; format: cell-based; conditions: pqsE co-expressed
T6 construct: expressed in transfected cells; host or cells: E. coli carrying pBAD-A-rhlR mutant, pCS26-prhlA-luxCDABE and pACYC-pqsE or empty pACYC
Source text: as §1, §2, §3

[7] = molecular target: T7, RhlR (I84M) (Pseudomonas aeruginosa, UniProt P54292, I84M); assay: E. coli prhlA-luxCDABE luciferase reporter assay; format: cell-based; conditions: pqsE co-expressed
T7 construct: expressed in transfected cells; host or cells: E. coli carrying pBAD-A-rhlR mutant, pCS26-prhlA-luxCDABE and pACYC-pqsE or empty pACYC
Source text: as §1, §2, §3

[8] = molecular target: T8, RhlR (L69M) (Pseudomonas aeruginosa, UniProt P54292, L69M); assay: E. coli prhlA-luxCDABE luciferase reporter assay; format: cell-based
T8 construct: expressed in transfected cells; host or cells: E. coli carrying pBAD-A-rhlR mutant, pCS26-prhlA-luxCDABE and pACYC-pqsE or empty pACYC
Source text: as §1, §2, §3

[9] = molecular target: T9, RhlR (A44M) (Pseudomonas aeruginosa, UniProt P54292, A44M); assay: E. coli prhlA-luxCDABE luciferase reporter assay; format: cell-based; conditions: even at the highest dose of C4HSL tested
T9 construct: expressed in transfected cells; host or cells: E. coli carrying pBAD-A-rhlR mutant, pCS26-prhlA-luxCDABE and pACYC-pqsE or empty pACYC
Source text: as §1, §2, §3

[10] = test system: RhlR; set-up: method as in PMID 28119451; conditions: cited from earlier work

SMILES: CCCC(=O)N[C@H]1CCOC1=O [C4HSL, N-butyryl-L-homoserine lactone]
- pEC50 ([1]; Vector (no pqsE), read-out: EC50): 5.62
- pEC50 ([1]; pqsE co-expressed, read-out: EC50): 6.27
- C4HSL required for QS activation ([1]; statement in discussion): > 1 µM
- pEC50 ([1]; without PqsE, read-out: EC50 value): ~5.70
- pEC50 [2]: 4.88
- pEC50 ([3]; Vector (no pqsE)): 6.18
- pEC50 ([3]; pqsE co-expressed): 6.83
- activation by C4HSL in the reporter system [4]: not activated
- activation by C4HSL in the reporter system ([5]; even at the highest dose of C4HSL tested): not activated
- pEC50 ([5]; pqsE co-expressed): 4.49
- pEC50 [6]: 5.28
- pEC50 [7]: 5.43
- pEC50 ([8]; Vector (no pqsE)): 4.86
- pEC50 ([8]; pqsE co-expressed): 5.76
- activation by C4HSL in the reporter system [9]: not activated
- pEC50 [10]: ~5.30
